{"source": "patent US11413280B2", "about": "(The Board of Trustees of the Leland Stanford Junior …, priority 2017, dated 2022)", "key": {"[1]": {"system": "miR17-5", "assay": "Relative miR17-5 expression in PAECs (qPCR)", "format": "cell-based, human", "details": "15 μM Enzastaurin 24 hours"}, "[2]": {"system": "PKC", "assay": "PKC and p-PKC protein expression in lung tissue of SuHx rats (immunoblot)", "format": "in vivo, rat", "details": "whole lung tissue, 5 mg/kg daily oral gavage", "method": "Experimental PAH was induced in male Sasco Sprague Dawley rats by subcutaneous injection of 20 mg/kg body weight SU5416."}, "[3]": {"system": "PASMC", "assay": "MTT proliferation assay in PASMC", "format": "cell-based, human", "details": "siFHIT PASMC, Enzastaurin 5 M as printed"}, "[4]": {"system": "hypoxia-induced experimental PAH in C57BL/6 and BMPR2+/− C57BL/6 mice", "assay": "Hypoxia-induced experimental PAH in wildtype and Bmpr2+/− mice", "format": "in vivo, mouse", "method": "Right Ventricular (RV) Systolic Pressure was measured through right jugular vein catheterization and RV hypertrophy was assessed by the weight ratio of the RV to left ventricle+septum. Vessel loss and muscularization of lung vessels were visualized by MOVAT pentachrome stain. […] Arrows indicate vessel position. FIG. 3F, Representative MOVAT lung histology depicting vessel structure. Arrows indicate vessel position.\nFhit homozygous (−/−) mice were obtained from Kay F. Huebner (Ohio State University). Bmpr2+/− mice were a gift from Marlene Rabinovitch (Stanford University). Adult wildtype C57BL/6 mice, Bmpr2+/− or Fhit−/− mice at 8-10 weeks of age were housed in chronic hypoxia (10% O2) for 3 weeks, followed by a recovery period of 4 weeks in normoxia (21% O2). […] Development of experimental PH was induced in adult Sprague Dawley rats (8 weeks old, 180-220 g) through a subcutaneous dose of the VEGFR-2 inhibitor SUGEN5416 (20 mg/kg body weight), followed by exposure to chronic hypoxia (10% O2) for 3 weeks and normoxia for 5 weeks (21% O2), as previously described(12). […] Right Ventricular (RV) Systolic Pressure was measured through right jugular vein catheterization, and RV hypertrophy (RVH) was assessed by the weight ratio of the RV to left ventricle and septum (LV+S).\nFIG. 24E, Representative MOVAT lung histology. Arrows indicate vessel position. FIGS. 24F-24G, Representative MOVAT lung histology of large (FIG. 24F) and small vessels (FIG. 24G) respectively. Arrows indicate vessel position."}, "[5]": {"system": "SUGEN5416/Hypoxia/Normoxia rats", "assay": "SUGEN5416/Hypoxia/Normoxia rat model of experimental PH", "format": "in vivo", "method": "Experimental PAH was induced in male Sasco Sprague Dawley rats by subcutaneous injection of 20 mg/kg body weight SU5416. […] Echocardiography was performed to assess development of RV hypertrophy and Ejection Fraction. Right Ventricular (RV) Systolic Pressure was measured through right jugular vein catheterization and RV hypertrophy was assessed by the weight ratio of the RV to left ventricle+septum. Vessel loss and muscularization of lung vessels were visualized by MOVAT pentachrome stain. […] FIG. 4F, Representative MOVAT lung histology. Fhit homozygous (−/−) mice were obtained from Kay F. Huebner (Ohio State University). Bmpr2+/− mice were a gift from Marlene Rabinovitch (Stanford University). Adult wildtype C57BL/6 mice, Bmpr2+/− or Fhit−/− mice at 8-10 weeks of age were housed in chronic hypoxia (10% O2) for 3 weeks, followed by a recovery period of 4 weeks in normoxia (21% O2). […] Development of experimental PH was induced in adult Sprague Dawley rats (8 weeks old, 180-220 g) through a subcutaneous dose of the VEGFR-2 inhibitor SUGEN5416 (20 mg/kg body weight), followed by exposure to chronic hypoxia (10% O2) for 3 weeks and normoxia for 5 weeks (21% O2), as previously described(12). […] Right Ventricular (RV) Systolic Pressure was measured through right jugular vein catheterization, and RV hypertrophy (RVH) was assessed by the weight ratio of the RV to left ventricle and septum (LV+S). Murine and rat lung tissue was fixed in paraformaldehyde (PFA) for 48 hours and preserved in EtOH. Paraffin embedded lung slides were stained with a Movat pentachrome stain (Histo-Tec, Hayward, Calif.), where vessel loss and muscularization of pulmonary vessels was visualized by light microscopy. Fluorescent immunocytochemistry on lung sections was performed on deparaffinized (Histoclear II, National Diagnostics) tissue sections with primary antibodies for von-Willebrand factor (vWF) and alpha smooth muscle actin (αSMA) following antigen-retrieval. Human PAH lung tissue was stained for anti-BMPR2 (Ab130206, Abcam) and anti-FHIT (kind gift of Kay F. Huebner, Ohio State University). PFA-fixed paraffin-embedded heart tissue was stained with trichrome staining (Histo-Tec, Hayward, Calif.) to visualize fibrotic transformation. Sprague Dawley rats, were subcutaneously injected with 20 mg/kg SUGEN5416 once and housed in chronic hypoxia (10%, 3 weeks), followed by 5 weeks in normoxia as previously described(41). […] Hemodynamic assessment of the animals (echocardiography, right heart catheter) was performed before sacrifice and tissue collection. […] Experimental PH was induced in male Sprague Dawley rats by subcutaneous injection of 20 mg/kg body weight SU5416. […] FIG. 11F, Representative MOVAT lung histology, highlighting large pulmonary vessels."}, "[6]": {"details": "3 weeks hypoxia, 5 mg/kg daily by mini-osmotic pump, C57BL/6 and BMPR2+/− mice"}, "[7]": {"details": "3 weeks hypoxia, 15 mg/kg/day by mini-osmotic pump, Bmpr2+/− and wildtype mice"}, "[8]": {"details": "5 mg/kg daily oral gavage for 3 weeks, vs vehicle"}, "[9]": {"details": "5 mg/kg/day oral gavage for 3 weeks, qPCR"}}, "note": "“Also recorded” adds a separate entry of the source."}
{"smiles": "Cn1cc(C2=C(c3cn(C4CCN(Cc5ccccn5)CC4)c4ccccc34)C(=O)NC2=O)c2ccccc21", "note": "[Enzastaurin, 3-(1-methyl-1H-indol-3-yl)-4-[1-[1-(pyridin-2-ylmethyl)piperidin-4-yl]-1H-indol-3-yl]-1H-pyrrole-2,5-dione]", "values": [{"measurement": "siFHIT-mediated increase in miR17-5 expression", "setting": "[1]", "result": "inhibited"}, {"measurement": "PKC activation as measured by its phosphorylation", "setting": "[2]", "result": "did not observe a significant decrease"}, {"measurement": "Increased PASMC proliferation induced by reductions in FHIT (MTT)", "setting": "[3]", "result": "rescued"}, {"measurement": "Hypoxia-induced PH (changes in RVSP, RVH and pulmonary physiology)", "setting": "[4]; 2-week treatment, 15 mg/kg/day, Bmpr2+/− and wild-type C57BL/6 mice", "result": "attenuated"}, {"measurement": "Right ventricle systolic pressure (RVSP)", "setting": "[4]; 3 weeks hypoxia, 5 mg/kg daily by mini-osmotic pump, vs hypoxia vehicle control", "result": "partial reduction"}, {"measurement": "Full or partial muscularization of AW and AD vessels", "setting": "[4]; [6]", "result": "significantly ameliorated"}, {"measurement": "Loss of alveolar wall (AW) and alveolar duct (AD) pulmonary vessels", "setting": "[4]; [6]", "result": "significantly ameliorated"}, {"measurement": "Right ventricle (RV) hypertrophy (RV/LV+S)", "setting": "[4]; [6]", "result": "substantial reduction"}, {"measurement": "Muscularization of distal vessels", "setting": "[4]; [7]", "result": "prevented"}, {"measurement": "RVH increase", "setting": "[4]; [7]", "result": "prevented"}, {"measurement": "RVSP increase", "setting": "[4]; [7]", "result": "prevented"}, {"measurement": "Vascular rarefaction", "setting": "[4]; [7]", "result": "prevented"}, {"measurement": "Cardiac output", "setting": "[5]; 5 mg/kg daily oral gavage", "result": "improves"}, {"measurement": "Cardiac / RV fibrosis", "setting": "[5]; [8]", "result": "reverses; also recorded: potently reduced"}, {"measurement": "Full or partial remodeling / muscularization of small and large vessels", "setting": "[5]; [8]", "result": "substantially and significantly reversed; also recorded: potently reduced"}, {"measurement": "Loss of alveolar wall (AW) and alveolar duct (AD) pulmonary vessels", "setting": "[5]; [8]", "result": "substantially and significantly reversed"}, {"measurement": "Right ventricle hypertrophy (RVH)", "setting": "[5]; [8]", "result": "lower; also recorded: potently reduced"}, {"measurement": "Vascular occlusion", "setting": "[5]; [8]", "result": "reverses; also recorded: nearly entirely reversed; also recorded: significantly less evidence"}, {"measurement": "Right ventricle systolic pressure (RVSP)", "setting": "[5]; 5 mg/kg daily oral gavage for 3 weeks, vs vehicle treated controls with experimental PAH", "result": "lower"}, {"measurement": "Emphysematous changes (linear intercept analysis of MOVAT lung histology)", "setting": "[5]; 5 mg/kg daily oral gavage, vs untreated controls", "result": "significantly less evidence"}, {"measurement": "Reduction of RVSP", "setting": "[5]; 5 mg/kg/day oral gavage for 3 weeks", "result": "over 30 mmHg"}, {"measurement": "BMPR2 expression in whole lung", "setting": "[5]; [9]", "result": "increased"}, {"measurement": "FHIT expression in whole lung", "setting": "[5]; [9]", "result": "increased"}, {"measurement": "LVEF (%) by Echocardiography", "setting": "[5]; before and after 3 weeks of 5 mg/kg daily oral gavage", "result": "improvement"}, {"measurement": "SUGEN5416/Hypoxia/Normoxia-induced lung and RV damage", "setting": "[5]; low-dose Enzastaurin (5 mg/kg/day)", "result": "potently reversed"}]}
